# Reference: US7550469B2, “Heterocyclic amide derivatives and their use as dopamine D3 receptor ligands” (Aventis Pharmaceuticals Inc., priority 2001, dated 2009)
# pKi: −log10 of the molar value.
# Target: T1, cloned human dopamine D3 receptors (Homo sapiens, UniProt P35462)
# T1 construct: expressed in transfected cells; membrane homogenate
# Test: [N-Methyl-3H]Spiroperidol binding to cloned human dopamine D3 receptors (Protocol 1)
# Conditions: Table 2; read-out: D3K1
# How it was run: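 Radioligand displacement with [N-methyl-3H]spiroperidol used a physiological-salt Tris buffer (0.05 M, pH 7.7; NaCl 120 mM, KCl 5 mM, CaCl2 2 mM, MgCl2 1 mM) and membranes of a high-expressing stable CHO clone carrying human D3. Total ligand concentration came from measured added CPM; 0.1% ascorbic acid was optional for oxidizable compounds.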
# T1 sequence (P35462 whole entry): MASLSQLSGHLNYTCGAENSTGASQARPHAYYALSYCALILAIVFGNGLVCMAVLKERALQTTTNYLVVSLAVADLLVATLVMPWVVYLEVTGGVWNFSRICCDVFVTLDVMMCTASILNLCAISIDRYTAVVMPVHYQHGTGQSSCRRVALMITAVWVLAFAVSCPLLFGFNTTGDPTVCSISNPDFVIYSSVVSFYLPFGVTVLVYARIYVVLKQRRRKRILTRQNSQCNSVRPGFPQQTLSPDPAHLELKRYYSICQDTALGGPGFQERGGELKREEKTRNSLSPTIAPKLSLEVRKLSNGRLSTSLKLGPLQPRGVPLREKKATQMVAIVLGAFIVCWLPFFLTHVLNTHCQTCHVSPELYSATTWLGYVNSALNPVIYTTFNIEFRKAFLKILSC
row,Structure (SMILES),pKi
1,CCn1cc(C(=O)N[C@@H](CO)CCCN2CCN(c3csc4cc(C(F)(F)F)ccc34)CC2)c(=O)c2ccc(C)nc21 [compound 815680],6.71
2,O=C(NCCCCN1CCN(c2c(-c3ccccc3)sc3cc(F)ccc23)CC1)c1ccc(-c2ccccc2)cc1 [compound 815872],6.25
3,O=C(NCC(CO)CCN1CCN(c2csc3cc(C(F)(F)F)ccc23)CC1)c1ccsc1 (centres unmarked) [818927ES],6.79
4,CCn1cc(C(=O)NC(CO)CCCN2CCN(c3csc4cc(C(F)(F)F)ccc34)CC2)c(=O)c2ccc(C)nc21 (centres unmarked) [compound 815704],6.86
5,O=C(NCC(CO)CCN1CCN(c2csc3cc(C(F)(F)F)ccc23)CC1)c1ccc2ncccc2c1 (centres unmarked) [818938ES],6.85

# Now from value to compound:
row,pKi,Structure (SMILES)
1,8.22,COc1ccc2cc(C(=O)NCCCCN3CCCN(c4csc5cc(F)ccc45)CC3)oc2c1 [compound 827122]
2,7.77,CC1=C(C(=O)NCCCCCN2CCN(c3csc4cc(C(F)(F)F)ccc34)CC2)Cc2ccccc21 [compound 826802]
3,6.57,COc1cc(OC)cc(C(=O)NCCCN2CCCN(c3csc4cc(F)ccc34)CC2)c1 [compound 827136]
4,7.55,O=C(NCCCCN1CCN(c2c(-c3ccccc3)sc3cc(F)ccc23)CC1)c1cccc(F)c1 [compound 815870]
5,7.55,COc1cc(Br)cc2cc(C(=O)NCCCCN3CCCN(c4csc5cc(F)ccc45)CC3)oc12 [compound 827125]

# Same assay, conditions: read-out: D3K1
row,Structure (SMILES),pKi
1,O=C(NC/C=C\CN1CCN(c2csc3cc(C(F)(F)F)ccc23)CC1)c1ccccc1 [compound 826337],7.54
2,CCn1cc(C(=O)N[C@@H](CO)CCCN2CCN(c3csc4cc(C(F)(F)F)ccc34)CC2)c(=O)c2ccc(C)nc21 [compound 815680],6.71
3,COc1ccc(C(=O)N[C@@H](CO)CCCN2CCN(c3csc4cc(C(F)(F)F)ccc34)CC2)cc1OC [compound 815665],6.79
4,O=C(NCCCCN1CCN(c2c(Cl)sc3cc(F)ccc23)CC1)C(F)(F)F [compound 814854],7.46
5,CC1(C)C(CNC(=O)c2ccc3ccccc3c2)C1CN1CCN(c2csc3cc(C(F)(F)F)ccc23)CC1 (centres unmarked) [compound 826277],7.69
6,O=C(NC/C=C/CN1CCN(c2csc3cc(C(F)(F)F)ccc23)CC1)C1CCCCC1 [compound 827717],8.02
7,O=C(NC/C=C\CN1CCN(c2csc3cc(C(F)(F)F)ccc23)CC1)c1ccccn1 [compound 826335],7.38
8,O=C(NCCCCN1CCN(c2c(Cl)sc3cc(F)ccc23)CC1)c1ccc(C(F)(F)F)cc1 [compound 815067],7.70
9,O=C(NC/C=C/CN1CCN(c2csc3cc(C(F)(F)F)ccc23)CC1)c1cccc(Cl)c1 [compound 827718],6.82
10,Cc1ccc(C(=O)N[C@@H](CO)CCCN2CCN(c3csc4cc(C(F)(F)F)ccc34)CC2)cc1 [compound 815671],6.51
11,O=C(NCCCCN1CCN(c2c(Cl)sc3cc(F)ccc23)CC1)c1ccc2c(c1)OCO2 [compound 815055],8.46
12,O=C(NCCCCN1CCN(c2c(Cl)sc3cc(C(F)(F)F)ccc23)CC1)c1ccc([N+](=O)[O-])cc1 [compound 815569],7.89
13,CCn1cc(C(=O)NC(CO)CCCN2CCN(c3csc4cc(C(F)(F)F)ccc34)CC2)c(=O)c2ccc(C)nc21 (centres unmarked) [compound 815704],6.86
14,N#Cc1cccc(C(=O)NC/C=C/CN2CCN(c3csc4cc(C(F)(F)F)ccc34)CC2)c1 [compound 827721],7.04
15,COc1ccc2[nH]c(C(=O)NCCCCCCN3CCN(c4csc5cc(C(F)(F)F)ccc45)CC3)cc2c1 [compound 826738],8.21

# The remaining lines, values ahead:
row,pKi,Structure (SMILES)
1,8.37,O=C(NCCCCN1CCN(c2c(Cl)sc3cc(F)ccc23)CC1)c1cccs1 [compound 815058]
2,7.46,O=C(NCCCCN1CCN(c2c(Cl)sc3cc(F)ccc23)CC1)c1ccccc1Br [compound 815070]

# Same assay, conditions: the 13th table, unit inferred; read-out: D3Ki
row,Structure (SMILES),pKi
1,O=C(NCCCCCN1CCC(c2noc3ccsc23)CC1)c1cccc(Cl)c1 [compound 816214],6.58
2,CCOc1ccc(C(=O)NCCCCN2CCC(c3noc4ccsc34)CC2)cc1 [compound 815152],6.80
3,O=C(NCCCCCN1CCC(c2noc3ccsc23)CC1)c1ccc(F)cc1 [compound 816217],6.44

# The next lines start with the values.
row,pKi,Structure (SMILES)
1,8.24,O=C(NCCCCN1CCCN(c2csc3cc(F)ccc23)CC1)c1c[nH]cn1 [S977830]
2,7.27,O=C(NCCCCCN1CCCN(c2csc3cc(F)ccc23)CC1)c1cccc(C(F)(F)F)c1 [S984491]
3,7.89,COc1ccc2[nH]c(C(=O)NCCCCCN3CCCN(c4csc5cc(F)ccc45)CC3)cc2c1 [S984505]
4,9.23,O=C(Cc1ccccc1F)NCCCCN1CCCN(c2csc3cc(F)ccc23)CC1 [S982514]
5,8.96,O=C(NCCCCN1CCCN(c2csc3cc(F)ccc23)CC1)c1cc2ccccc2s1 [compound 822158]
6,7.81,O=C(NCCCCCN1CCCN(c2csc3cc(F)ccc23)CC1)c1ccc2ccccc2c1 [S984490]
7,8.24,O=C(Cc1ccccc1Br)NCCCCN1CCCN(c2csc3cc(F)ccc23)CC1 [S982512]
8,7.02,O=C(NCCCCN1CCCN(c2csc3cc(C(F)(F)F)ccc23)CC1)c1cnc2ccccc2n1 [S980643]
9,7.27,O=C(NCCCCN1CCCN(c2csc3cc(C(F)(F)F)ccc23)CC1)c1c[nH]c2ccccc12 [S980649]

# Same assay, conditions: the 14th table; read-out: D3 Ki
row,Structure (SMILES),pKi
1,CCn1cc(C(=O)N[C@@H](CO)CCCN2CCN(c3csc4cc(C(F)(F)F)ccc34)CC2)c(=O)c2ccc(C)nc21 [compound 815680],6.71
2,COc1ccc(C(=O)N[C@@H](CO)CCCN2CCN(c3csc4cc(C(F)(F)F)ccc34)CC2)cc1OC [compound 815665],6.79
3,Cc1ccc(C(=O)N[C@@H](CO)CCCN2CCN(c3csc4cc(C(F)(F)F)ccc34)CC2)cc1 [compound 815671],6.51
4,CCn1cc(C(=O)NC(CO)CCCN2CCN(c3csc4cc(C(F)(F)F)ccc34)CC2)c(=O)c2ccc(C)nc21 (centres unmarked) [compound 815704],6.86
5,COc1ccc2[nH]c(C(=O)NCCCCCCN3CCN(c4csc5cc(C(F)(F)F)ccc45)CC3)cc2c1 [compound 826738],8.21

# Results, then the compound that gave them:
row,pKi,Structure (SMILES)
1,8.43,O=C(NCCCCCN1CCN(c2csc3cc(F)ccc23)CC1)c1cc2ccccc2o1 [compound 826793]
2,7.77,CC1=C(C(=O)NCCCCCN2CCN(c3csc4cc(C(F)(F)F)ccc34)CC2)Cc2ccccc21 [compound 826802]
3,8.34,O=C(NCCCCCN1CCN(c2csc3cc(F)ccc23)CC1)c1ccc(OC(F)(F)F)cc1 [compound 826777]
4,8.57,O=C(NCCCCCN1CCN(c2csc3cc(F)ccc23)CC1)c1cc2ccccc2s1 [compound 826783]
5,7.55,O=C(NCCCCN1CCN(c2c(-c3ccccc3)sc3cc(F)ccc23)CC1)c1cccc(F)c1 [compound 815870]
6,8.96,Cn1c(C(=O)NCCCCCN2CCN(c3csc4cc(F)ccc34)CC2)cc2ccccc21 [compound 826786]

# Same assay, conditions: the 15th table; read-out: D3 Ki
row,Structure (SMILES),pKi
1,O=C(NCCCCN1C2CCC1CC(c1noc3cc(F)ccc13)C2)c1ccccc1C(F)(F)F (centres unmarked) [compound 816340],6.37
2,O=C(NCCCCN1C2CCC1CC(c1noc3ccccc13)C2)c1ccc(C(F)(F)F)cc1 (centres unmarked) [compound 816530],6.96

# Same assay, conditions: the 16th table; read-out: D3 Ki
row,pKi,Structure (SMILES)
1,8.22,COc1ccc2cc(C(=O)NCCCCN3CCCN(c4csc5cc(F)ccc45)CC3)oc2c1 [compound 827122]
2,6.57,COc1cc(OC)cc(C(=O)NCCCN2CCCN(c3csc4cc(F)ccc34)CC2)c1 [compound 827136]
3,7.55,COc1cc(Br)cc2cc(C(=O)NCCCCN3CCCN(c4csc5cc(F)ccc45)CC3)oc12 [compound 827125]

# Same assay, conditions: the 17th table; read-out: D3 Ki
row,pKi,Structure (SMILES)
1,7.28,O=C(NCC1CC1CN1CCCN(c2csc3cc(F)ccc23)CC1)c1ccc(C(F)(F)F)cc1 (racemic) [compound 830404]
2,7.97,COc1ccc(C(=O)N(Cc2ccccc2)CC2CC2CN2CCCN(c3csc4cc(F)ccc34)CC2)cc1 (racemic) [compound 830394]
3,7.78,COc1cc(OC)cc(C(=O)N(Cc2ccccc2)CC2CC2CN2CCCN(c3csc4cc(F)ccc34)CC2)c1 (racemic) [compound 830396]
4,7.56,CCCCc1ccc(C(=O)N(Cc2ccccc2)CC2CC2CN2CCCN(c3csc4cc(F)ccc34)CC2)cc1 (racemic) [compound 830395]

# Same assay, conditions: the 18th table; read-out: D3 Ki
row,pKi,Structure (SMILES)
1,7.17,COc1ccc2[nH]c(C(=O)NCc3sccc3CN3CCN(c4csc5cc(F)ccc45)CC3)cc2c1 [compound 826323]
2,7.80,CC1=C(C(=O)NCc2sccc2CN2CCN(c3csc4cc(F)ccc34)CC2)Cc2ccccc21 [compound 826330]
3,7.02,O=C(NCc1sccc1CN1CCN(c2csc3cc(F)ccc23)CC1)c1cccc2ccccc12 [compound 826299]

# Same assay, conditions: the 19th table; read-out: D3 Ki
row,pKi,Structure (SMILES)
1,6.79,COc1cc(OC)cc(C(=O)Nc2cccc(CN3CCN(c4csc5cc(F)ccc45)CC3)c2)c1 [compound 822161]
2,7.48,O=C(Nc1cccc(CN2CCN(c3csc4cc(F)ccc34)CC2)c1)c1ccc2[nH]nnc2c1 [compound 825656]
3,6.61,O=C(Nc1cccc(CN2CCN(c3csc4cc(F)ccc34)CC2)c1)c1ccsc1 [compound 825654]
4,7.20,O=C(Nc1ccc(CN2CCN(c3csc4cc(F)ccc34)CC2)cc1)c1cccs1 [compound 822213]
5,6.78,O=C(Nc1cccc(CN2CCN(c3csc4cc(F)ccc34)CC2)c1)c1cccc(F)c1 [compound 822164]

# Same assay, conditions: the 20th table; read-out: D3 Ki
row,pKi,Structure (SMILES)
1,6.72,COc1cc(OC)cc(C(=O)NCc2ccoc2CN2CCN(c3csc4cc(F)ccc34)CC2)c1 [compound 825837]

# Same assay, conditions: the 21st table; read-out: D3 Ki
row,pKi,Structure (SMILES)
1,6.83,C[C@@H]1CN(c2csc3cc(C(F)(F)F)ccc23)C[C@H](C)N1CCCCNC(=O)c1cc2ccccc2o1 [compound 826958]
2,7.01,C[C@@H]1CN(c2csc3cc(C(F)(F)F)ccc23)C[C@H](C)N1CCCCNC(=O)c1cc2ccccc2s1 [compound 827045]
3,7.72,C[C@@H]1CN(c2csc3cc(F)ccc23)C[C@H](C)N1CCCCNC(=O)c1ccc(F)cc1 [compound 826939]
4,6.57,C[C@@H]1CN(c2csc3cc(C(F)(F)F)ccc23)C[C@H](C)N1CCCCNC(=O)c1cnc2ccccc2n1 [compound 826935]
5,6.76,C[C@@H]1CN(c2csc3cc(C(F)(F)F)ccc23)C[C@H](C)N1CCCCNC(=O)c1cccnc1Cl [compound 826938]
6,6.65,C[C@@H]1CN(c2csc3cc(C(F)(F)F)ccc23)C[C@H](C)N1CCCCNC(=O)c1cccc2[nH]ccc12 [compound 826953]
7,6.42,COc1cc(OC)cc(C(=O)NCCCCN2[C@H](C)CN(c3csc4cc(C(F)(F)F)ccc34)C[C@@H]2C)c1 [compound 827039]

# Same assay, conditions: the 23rd table; read-out: D3 Ki
row,pKi,Structure (SMILES)
1,7.14,CCC1CCC(NCC2CC2CN2CCN(c3cc(C)ccc3C)CC2)CC1 (centres unmarked) [compound 832265]
2,7.55,FC(F)(F)c1ccc2c(N3CCN(CC4CC4CNCCCN4CCCCC4)CC3)csc2c1 (racemic) [compound 832659]
3,8.25,FC(F)(F)c1ccc2c(N3CCN(C[C@@H]4C[C@H]4CNCCc4cccnc4)CC3)csc2c1 [compound 832281]
4,7.50,COc1cccc2c(C3CCN(C[C@@H]4C[C@H]4CN[C@H]4CC[C@H](C)CC4)CC3)noc12 [compound 833329]
5,7.24,COc1ccc(NC[C@@H]2C[C@H]2CN2CCN(c3csc4cc(C(F)(F)F)ccc34)CC2)cc1 [compound 832279]
